Reference: US6403636B1, “Xanthone compounds, their preparation and use as medicament” (Zentaris AG, priority 1999, dated 2002)
*1 amine or outer side, *2 acyl side, *3 side chain or, on linkers, in order; H or OH if unused. Where a SMILES comes first, the peptide text is derived from it. Bridges are numbered along the chain shown (N, C = ends). Roman numbers before positions name the chains, in order. [ ]: non-standard residue; d: D form. Actinocin(9to1) = Cc1c2oc3c(C)ccc(C(=O)[*:1])c3nc-2c(C(=O)[*:2])c(N)c1=O; NMeV = CN[C@H](C(=O)O)C(C)C; Sar = CNCC(=O)O

Legend:
[1] = tested on: KB: epidermal carcinoma of the oral cavity; experiment: XTT proliferation/cytotoxicity test, KB; assay type: cell-based; details: all tested tumor cell lines (KB, L1210, SK-OV-3, LNCAP)
Description: The XTT-assay was carried out as described by D. A. Scudiero et al., Cancer Res. 48 (Sep. 1, 1988), pp. 4827-4833. The results of this procedure are expressed as that dose which inhibits growth by 50% as compared to control growth after 45 hours following application of the substance. The dose value as obtained is referred to as ED 50 and activity is indicated for ED 50 levels of ≦30 μg/ml. […] The activities of sootepenseone (1) obtained in Example 1 are reported below in Table 2.

[2] = tested on: KB: epidermal carcinoma of the oral cavity; experiment: In vivo antitumor activity (hollow fiber assay), KB; details: for % Inhibition (cell line) KB: location s.c., i.p. doses (mg/kg): sootepenseone 4 × 10, Actinomycin D 4 × 0.1, Adriamycin 4 × 4, Bleomycin 4 × 8, Vinblastin 4 × 0.65
Description: (§1) The hollow-fiber test was carried out as described by Melinda G. Hollingshead et al. in Life Sciences, Vol. 57, No. 2, pp.131-141, 1995.

[3] = tested on: MCF-7: human breast cancer; experiment: In vivo antitumor activity (hollow fiber assay), MCF-7; details: location s.c.; i.p. doses (mg/kg): sootepenseone 4 × 10, Actinomycin D 4 × 0.1, Adriamycin 4 × 4, Bleomycin 4 × 8, Vinblastin 4 × 0.65; negative values = increase in cell growth
Description: as §1

in vivo = details: mouse, ip
mice = experiment: Toxicity (LD50, i.p., mice)

CC(C)=CC[C@]12OC(C)(C)C3CC(C=C4C(=O)c5c(O)cc6c(c5OC431)C(C)(C)C(C)O6)C2=O (stereo partly drawn) [Sootepenseone (1; D-25637), sootepenseone]
anticancer activity against all tested tumor cell lines [1]: significant anticancer activity | activity in the hollow-fiber test compared with the standard compounds ([2]; in words, KB and MCF-7): more active | % Inhibition (cell line) KB [2]: 49% | % Inhibition (cell line) MCF-7 [3]: 41% | LD50 (in vivo): > 100 mg/kg | less toxic than Adriamycin (mice; from LD50 i.p. mice): 60% | less toxic than Bleomycin (mice; from LD50 i.p. mice): 20% | times less toxic than Actinomycin D (mice; from LD50 i.p. mice): at least 100 times | times less toxic than Vinblastin (mice; from LD50 i.p. mice): about 16 times

Cc1c2oc3c(C)ccc(C(=O)N[C@@H]4C(=O)N[C@H](C(C)C)C(=O)N5CCC[C@H]5C(=O)N(C)CC(=O)N(C)[C@@H](C(C)C)C(=O)O[C@@H]4C)c3nc-2c(C(=O)N[C@@H]2C(=O)N[C@H](C(C)C)C(=O)N3CCC[C@H]3C(=O)N(C)CC(=O)N(C)[C@@H](C(C)C)C(=O)O[C@@H]2C)c(N)c1=O [Actinomycin D] (I: T[dV]P[Sar][NMeV] / II: T[dV]P[Sar][NMeV]; ester I:1-I:C, II:1-II:C; linker I:N-II:N via Actinocin(9to1))
% Inhibition (cell line) KB [2]: 40% | LD50 (mg/kg i.p. mice) (mice): ca. 1 mg/kg

CC[C@]1(O)C[C@@H]2CN(CCc3c([nH]c4ccccc34)[C@@](C(=O)OC)(c3cc4c(cc3OC)N(C)[C@H]3[C@@](O)(C(=O)OC)[C@H](OC(C)=O)[C@]5(CC)C=CCN6CC[C@]43[C@@H]65)C2)C1 [Vinblastin]
% Inhibition (cell line) KB [2]: 13% | LD50 (mg/kg i.p. mice) (mice): ca. 6 mg/kg

COc1cccc2c1C(=O)c1c(O)c3c(c(O)c1C2=O)C[C@@](O)(C(=O)CO)C[C@@H]3O[C@H]1C[C@H](N)[C@H](O)[C@H](C)O1 [Adriamycin]
% Inhibition (cell line) KB [2]: 52% | % Inhibition (cell line) MCF-7 [3]: 41% | LD50 (in vivo): ~40 mg/kg

Bleomycin
% Inhibition (cell line) KB [2]: 53% | LD50 (mg/kg i.p. mice) (mice): ca. 80 mg/kg
